Results published in PubChem BioAssay (NCI).
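These data come from cells grown in 96-well plates and exposed to compound for 48 hours at five concentrations. At the GI50, growth is halved. TGI: total growth inhibition.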

Experiments:
Assay in all cases: DTP human tumour cell line panel, 48 h
786-0 renal = test system: 786-0 renal
A498 renal = test system: A498 renal
A549 NSCLC = test system: A549 NSCLC
ACHN renal = test system: ACHN renal
BT-549 breast = test system: BT-549 breast
CAKI-1 renal = test system: CAKI-1 renal
CCRF-CEM leukemia = test system: CCRF-CEM leukemia
COLO 205 colon = test system: COLO 205 colon
DU-145 prostate = test system: DU-145 prostate
EKVX NSCLC = test system: EKVX NSCLC
HCC-2998 colon = test system: HCC-2998 colon
HCT-116 colon = test system: HCT-116 colon
HCT-15 colon = test system: HCT-15 colon
HL-60(TB) leukemia = test system: HL-60(TB) leukemia
HOP-62 NSCLC = test system: HOP-62 NSCLC
HOP-92 NSCLC = test system: HOP-92 NSCLC
HS 578T breast = test system: HS 578T breast
HT29 colon = test system: HT29 colon
IGROV1 ovarian = test system: IGROV1 ovarian
K-562 leukemia = test system: K-562 leukemia
KM12 colon = test system: KM12 colon
LOX IMVI melanoma = test system: LOX IMVI melanoma
M14 melanoma = test system: M14 melanoma
MALME-3M melanoma = test system: MALME-3M melanoma
MCF7 breast = test system: MCF7 breast
MDA-MB-231 breast = test system: MDA-MB-231 breast
MDA-MB-435 = test system: MDA-MB-435
MDA-MB-468 breast = test system: MDA-MB-468 breast
MOLT-4 leukemia = test system: MOLT-4 leukemia
NCI-H226 lung = test system: NCI-H226 lung
NCI-H23 lung = test system: NCI-H23 lung
NCI-H460 lung = test system: NCI-H460 lung
NCI-H522 lung = test system: NCI-H522 lung
OVCAR-3 ovarian = test system: OVCAR-3 ovarian
OVCAR-4 ovarian = test system: OVCAR-4 ovarian
OVCAR-5 ovarian = test system: OVCAR-5 ovarian
OVCAR-8 ovarian = test system: OVCAR-8 ovarian
PC-3 prostate = test system: PC-3 prostate
RPMI-8226 leukemia = test system: RPMI-8226 leukemia
RXF 393 renal = test system: RXF 393 renal
SF-268 CNS = test system: SF-268 CNS
SF-295 CNS = test system: SF-295 CNS
SF-539 CNS = test system: SF-539 CNS
SK-MEL-2 melanoma = test system: SK-MEL-2 melanoma
SK-MEL-28 melanoma = test system: SK-MEL-28 melanoma
SK-MEL-5 melanoma = test system: SK-MEL-5 melanoma
SK-OV-3 ovarian = test system: SK-OV-3 ovarian
SN12C renal = test system: SN12C renal
SNB-19 CNS = test system: SNB-19 CNS
SNB-75 CNS = test system: SNB-75 CNS
SR leukemia = test system: SR leukemia
SW-620 colon = test system: SW-620 colon
T-47D breast = test system: T-47D breast
TK-10 renal = test system: TK-10 renal
U251 CNS = test system: U251 CNS
UACC-257 melanoma = test system: UACC-257 melanoma
UACC-62 melanoma = test system: UACC-62 melanoma
UO-31 renal = test system: UO-31 renal

SMILES: CC1=C(C(=O)Nc2ccccc2)C(c2ccc3ccccc3c2)n2c(nc3ccccc32)N1 (stereo unspecified)
- GI50 (786-0 renal): 19.6 µM
- TGI (786-0 renal): 38.6 µM
- GI50 (A498 renal): 23.3 µM
- TGI (A498 renal): 63.3 µM
- GI50 (A549 NSCLC): 13.5 µM
- TGI (A549 NSCLC): 33.2 µM
- GI50 (ACHN renal): 17 µM
- TGI (ACHN renal): 35.3 µM
- GI50 (BT-549 breast): 28 µM
- TGI (BT-549 breast): > 100 µM
- GI50 (CAKI-1 renal): 19.2 µM
- TGI (CAKI-1 renal): 56.3 µM
- GI50 (CCRF-CEM leukemia): 8.63 µM
- TGI (CCRF-CEM leukemia): > 100 µM
- GI50 (COLO 205 colon): 26.5 µM
- TGI (COLO 205 colon): > 100 µM
- GI50 (DU-145 prostate): 18.2 µM
- TGI (DU-145 prostate): 62.3 µM
- GI50 (EKVX NSCLC): 16 µM
- TGI (EKVX NSCLC): 46.2 µM
- GI50 (HCC-2998 colon): 34 µM
- TGI (HCC-2998 colon): > 100 µM
- GI50 (HCT-116 colon): 13.4 µM
- TGI (HCT-116 colon): 33.1 µM
- GI50 (HCT-15 colon): 16.4 µM
- TGI (HCT-15 colon): 56.2 µM
- GI50 (HL-60(TB) leukemia): 13.7 µM
- TGI (HL-60(TB) leukemia): > 100 µM
- GI50 (HOP-62 NSCLC): 15.4 µM
- TGI (HOP-62 NSCLC): 31.6 µM
- GI50 (HOP-92 NSCLC): 15.3 µM
- TGI (HOP-92 NSCLC): 36.5 µM
- GI50 (HS 578T breast): 15.6 µM
- TGI (HS 578T breast): 57.2 µM
- GI50 (HT29 colon): 24.4 µM
- TGI (HT29 colon): 69.2 µM
- GI50 (IGROV1 ovarian): 25.8 µM
- TGI (IGROV1 ovarian): 85.7 µM
- GI50 (K-562 leukemia): 7.06 µM
- TGI (K-562 leukemia): > 100 µM
- GI50 (KM12 colon): 31.9 µM
- TGI (KM12 colon): > 100 µM
- GI50 (LOX IMVI melanoma): 14.3 µM
- TGI (LOX IMVI melanoma): 31 µM
- GI50 (M14 melanoma): 33.4 µM
- TGI (M14 melanoma): > 100 µM
- GI50 (MALME-3M melanoma): 18.3 µM
- TGI (MALME-3M melanoma): 40.3 µM
- GI50 (MCF7 breast): 9.12 µM
- TGI (MCF7 breast): 27.7 µM
- GI50 (MDA-MB-231 breast): 20.4 µM
- TGI (MDA-MB-231 breast): 41.5 µM
- GI50 (MDA-MB-435): 41.6 µM
- TGI (MDA-MB-435): > 100 µM
- GI50 (MDA-MB-468 breast): 14.1 µM
- TGI (MDA-MB-468 breast): 35.1 µM
- GI50 (MOLT-4 leukemia): 5.71 µM
- TGI (MOLT-4 leukemia): 72 µM
- GI50 (NCI-H226 lung): 12.9 µM
- TGI (NCI-H226 lung): 34.8 µM
- GI50 (NCI-H23 lung): 27.7 µM
- TGI (NCI-H23 lung): > 100 µM
- GI50 (NCI-H460 lung): 15 µM
- TGI (NCI-H460 lung): 33.6 µM
- GI50 (NCI-H522 lung): 18.1 µM
- TGI (NCI-H522 lung): 45.7 µM
- GI50 (OVCAR-3 ovarian): 16.4 µM
- TGI (OVCAR-3 ovarian): 31.9 µM
- GI50 (OVCAR-4 ovarian): 15.4 µM
- TGI (OVCAR-4 ovarian): 45.3 µM
- GI50 (OVCAR-5 ovarian): 28 µM
- TGI (OVCAR-5 ovarian): 95.6 µM
- GI50 (OVCAR-8 ovarian): 16.9 µM
- TGI (OVCAR-8 ovarian): 35.9 µM
- GI50 (PC-3 prostate): 12.4 µM
- TGI (PC-3 prostate): 31.4 µM
- GI50 (RPMI-8226 leukemia): 20 µM
- TGI (RPMI-8226 leukemia): > 100 µM
- GI50 (RXF 393 renal): 11.8 µM
- TGI (RXF 393 renal): 40.5 µM
- GI50 (SF-268 CNS): 27.3 µM
- TGI (SF-268 CNS): > 100 µM
- GI50 (SF-295 CNS): 17 µM
- TGI (SF-295 CNS): 37.6 µM
- GI50 (SF-539 CNS): 15.5 µM
- TGI (SF-539 CNS): 30.4 µM
- GI50 (SK-MEL-2 melanoma): 22.1 µM
- TGI (SK-MEL-2 melanoma): 71.5 µM
- GI50 (SK-MEL-28 melanoma): 21.2 µM
- TGI (SK-MEL-28 melanoma): 56.4 µM
- GI50 (SK-MEL-5 melanoma): 58.6 µM
- TGI (SK-MEL-5 melanoma): > 100 µM
- GI50 (SK-OV-3 ovarian): 21.5 µM
- TGI (SK-OV-3 ovarian): 85.7 µM
- GI50 (SN12C renal): 17.1 µM
- TGI (SN12C renal): 40.2 µM
- GI50 (SNB-19 CNS): 22.7 µM
- TGI (SNB-19 CNS): 59.2 µM
- GI50 (SNB-75 CNS): 10.4 µM
- TGI (SNB-75 CNS): 30.5 µM
- GI50 (SR leukemia): 22 µM
- TGI (SR leukemia): > 100 µM
- GI50 (SW-620 colon): 22.3 µM
- TGI (SW-620 colon): > 100 µM
- GI50 (T-47D breast): 58.5 µM
- TGI (T-47D breast): > 100 µM
- GI50 (TK-10 renal): 19.3 µM
- TGI (TK-10 renal): 48.6 µM
- GI50 (U251 CNS): 16.3 µM
- TGI (U251 CNS): 32.5 µM
- GI50 (UACC-257 melanoma): 67.1 µM
- TGI (UACC-257 melanoma): > 100 µM
- GI50 (UACC-62 melanoma): 20.3 µM
- TGI (UACC-62 melanoma): 63.5 µM
- GI50 (UO-31 renal): 12.6 µM
- TGI (UO-31 renal): 39.9 µM
